Results reported in PMC10167355, “Optimized spirooxindole-pyrazole hybrids targeting the p53-MDM2 interplay induce apoptosis and synergize with doxorubicin in A549 cells” (Scientific Reports, 2023).
“Also recorded” adds a separate entry of the source. Each block holds one compound with its values, some of them ahead of it.

How the values were obtained:
MDM2 = assay: Western blot of MDM2 level in A549 cells; assay type: cell-based, human; conditions: for MDM2 level, single agent / MDM2 level, combined treatment compared to doxorubicin alone: A549; for MDM2 level, single agent: 0.2 µM derivative alone or 14 µM doxorubicin alone; for MDM2 level, combined treatment compared to doxorubicin alone: 0.2 µM derivative plus 14 µM doxorubicin; for MDM2 level: A549, drug concentration equivalent to IC75 (30 µM), fold over mock
Procedure: (§1) A549 cells were treated with different concentrations of the molecules as indicated. Cell extracts were prepared as described. Ten-20 μg of total proteins were resolved on 4–15% Mini protean TGX precast gels (Bio-Rad) and transferred to nitrocellulose membrane using 1704158 Trans-Blot Turbo Mini NC Transfer Packs (Bio-Rad) in a Trans-Blot Turbo apparatus (Bio-Rad). Membranes were blocked with 5% non-fat dry milk in 0.1% Tween-20 in PBS for 1 h, then incubated for 1 h at room temperature or overnight at 4 °C with the appropriate primary antibody. The following antibodies were employed: anti-p53 (DO-1, sc-126, Santa Cruz Biotechnology, 1:20.000), anti-p21 (2946, Cell Signaling, 1:2000), anti-MDM2 (SMP14, sc-965, Santa Cruz Biotechnology, 1:200), anti β-actin (AC-74, Sigma-Aldrich, 1:30.000); secondary anti-mouse IgG peroxidase conjugate (A9044, Sigma–Aldrich, 1:10.000) and secondary anti-rabbit peroxidase conjugate (A9169, Sigma-Aldrich, 1: 12.000). Detection was carried out with ECL FAST PICO (ECL-1002, Immunological Sciences, Roma, Italy). Chemiluminescence was analysed by Alliance LD, UVITEC Cambridge (Cambridge, UK).

activated PBL = assay: MTT assay on normal PBL activated with PHA and recombinant IL-2; assay type: cell-based; conditions: Homo sapiens, mean ± SD of 4–6 IC50 values
Procedure: (§2) Human tumor cell lines A2780 [ovary, adenocarcinoma, accession number HTL98008, obtained from Interlab Cell Line Collection (ICLC), Genova, Italy], A549 (lung, carcinoma, HTL03001, ICLC), MDA-MB-453 (breast, carcinoma, HTL01013, ICLC), and HepG2 (liver, carcinoma, HB-8065, American Type Culture Collection, Rockville, MA, USA ) were plated at 1.4 × 10^4/ml, 0.65 × 10^4/mL, 4.7 × 10^4/mL, and 1.0 × 10^4/mL, respectively, in 180 μL complete medium (RPMI 1640 for A2780 and A549 and DMEM for MDA-MB-453 and HepG2) into flat-bottomed 96-well microtiter plates. After 6–8 h cells were treated with 20 μL containing five 1:10 fold concentrations of our compounds diluted in FCS containing 3% DMSO. As normal non-cancer cell targets we used peripheral blood lymphocytes obtained from three healthy volunteers, isolated by gradient centrifugation (Lympholyte-H Cell Separation Media, EuroClone, Pero, MI, Italy) and stimulated with 1% phytohemagglutinin and 100 U/ml recombinant IL-2. One week after stimulation cells were ready for use at 15,000/well.
In both cases, after 72 h treatment, the MTT assay was applied as described elsewhere. […] IC100 and IC75 were extrapolated from the mean concentration–response curves.

A549 cells = assay: Annexin-V-FITC / propidium iodide apoptosis assay; assay type: cell-based, human; conditions: A549, compounds at their specific IC75s, three days
Procedure: The induction of apoptosis was evaluated in A549 cells characterized by wild-type p53 and MDM2 proteins. They were plated at the opportune concentration (see above) into 25 cm^2 flasks in 10 mL complete medium. After 6–8 h the compounds were added at their specific IC75s, as previously calculated by the MTT assay.
All floating and adherent cells were harvested three days later, washed with normal saline buffer, and apoptosis determined by double staining with Annexin-V-FITC and propidium iodide (PI) (rh AnnexinV/FITC Kit, Bender MedSystem GmbH, Vienna, Austria). Briefly, 0.5 × 10^6 cells were resuspended in binding buffer 1× and stained with 5 μL of Annexin-V-FITC. After 10 min incubation 10 μL of PI were added and samples incubated for 5 min. Samples were immediately analyzed using a Flow Cytometer (FACScan, BD Biosciences, Milano, Italy) with dedicated software.

p21 = assay: Western blot of p21 level in A549 cells; assay type: cell-based, human; conditions: for p21 level, single agent / p21 level, combined treatment compared to doxorubicin alone: A549; for p21 level, single agent: 0.2 µM derivative alone or 14 µM doxorubicin alone; for p21 level, combined treatment compared to doxorubicin alone: 0.2 µM derivative plus 14 µM doxorubicin
Procedure: as §1

p53 = assay: Western blot of p53 level in A549 cells; assay type: cell-based, human; conditions: for p53 induction, dose–response: A549, 24 h, 0.01, 0.1, 1, 10 µM; for p53 level, single agent / p53 level, combined treatment compared to doxorubicin alone: A549; for p53 level, single agent: 0.2 µM derivative alone or 14 µM doxorubicin alone; for p53 level, combined treatment compared to doxorubicin alone: 0.2 µM derivative plus 14 µM doxorubicin; for p53 level: A549, drug concentration equivalent to IC75 (30 µM), fold over mock
Procedure: as §1

A2780 (ovarian) = assay: MTT antiproliferative assay, A2780; assay type: cell-based; conditions: Homo sapiens, 72 h treatment, mean ± SD of 5–6 data
Procedure: as §2
(§3) In both cases, after 72 h treatment, the MTT assay was applied as described elsewhere. The IC50 values were calculated from the analysis of single concentration–response curves, each final value is the mean of 5–6 experiments. IC100 and IC75 were extrapolated from the mean concentration–response curves.

HepG2 (liver) = assay: MTT antiproliferative assay, HepG2; assay type: cell-based; conditions: Homo sapiens, 72 h treatment, mean ± SD of 5–6 data
Procedure: as §2, §3

[1] = tested on: A2780, A549, HepG2, MDA-MB-453; assay: MTT assay, panel of four human cancer cell lines taken together; assay type: cell-based; conditions: all four cell lines, 30 μM = arbitrary limit of pharmacological relevance
Procedure: After 6–8 h cells were treated with 20 μL containing five 1:10 fold concentrations of our compounds diluted in FCS containing 3% DMSO. As normal non-cancer cell targets we used peripheral blood lymphocytes obtained from three healthy volunteers, isolated by gradient centrifugation (Lympholyte-H Cell Separation Media, EuroClone, Pero, MI, Italy) and stimulated with 1% phytohemagglutinin and 100 U/ml recombinant IL-2. One week after stimulation cells were ready for use at 15,000/well. In both cases, after 72 h treatment, the MTT assay was applied as described elsewhere. […] IC100 and IC75 were extrapolated from the mean concentration–response curves.

A549 (lung) = assay: MTT antiproliferative assay, A549; assay type: cell-based; conditions: Homo sapiens, 72 h treatment, mean ± SD of 5–6 data
Procedure: as §2, §3

Compound: Cc1c(C(=O)C2C(c3cccc(F)c3)C3CSCN3C23C(=O)Nc2ccccc23)cnn1-c1ccccc1 (centres unmarked) [8j, 7'-(3-Fluorophenyl)-6'-(5-methyl-1-phenyl-1H-pyrazole-4-carbonyl)-1',6',7',7a'-tetrahydro-3'H-spiro[indoline-3,5'-pyrrolo[1,2-c]thiazol]-2-one]
MDM2 level, single agent (MDM2): slight but not significant MDM2 increase
MDM2 level, combined treatment compared to doxorubicin alone (MDM2): no further increases; also recorded: did not trigger a further
IC50 (activated PBL; PBL A): 54 ± 2.5 µM
IC50 (activated PBL; PBL B): 55 ± 3.3 µM
IC50 (activated PBL; PBL C): 61.2 ± 19.7 µM
apoptotic activity (A549 cells): slightly trigger apoptosis
melting point: 125 to 126 °C
p21 level, single agent (p21): did not increase
p21 level, combined treatment compared to doxorubicin alone (p21): no further increases
p53 induction, dose–response (p53): able to induce p53 only at high concentrations; also recorded: induce p53, although not at high level and only at high concentrations
p53 level, single agent (p53): did not increase
p53 level, combined treatment compared to doxorubicin alone (p53): no further increases; also recorded: did not trigger a further

Compound: COc1cccc2c1C(=O)c1c(O)c3c(c(O)c1C2=O)C[C@@](O)(C(=O)CO)C[C@@H]3O[C@H]1C[C@H](N)[C@H](O)[C@H](C)O1 [Doxorubicin, doxorubicin]
MDM2 level, single agent (MDM2): strongly decreased
p21 level, single agent (p21): clearly triggered the induction
p53 level, single agent (p53): clearly triggered the induction

melting point: 146 to 147 °C
Compound: Cc1c(C(=O)C2C(c3cccc([N+](=O)[O-])c3)C3CSCN3C23C(=O)Nc2ccccc23)cnn1-c1ccccc1 (centres unmarked)

Compound: Cc1c(C(=O)C2C(c3ccc(Cl)cc3Cl)C3CSCN3C23C(=O)Nc2ccccc23)cnn1-c1ccccc1 (centres unmarked) [8h, 7'-(2,4-Dichlorophenyl)-6'-(5-methyl-1-phenyl-1H-pyrazole-4-carbonyl)-1',6',7',7a'-tetrahydro-3'H-spiro[indoline-3,5'-pyrrolo[1,2-c]thiazol]-2-one]
MDM2 level, single agent (MDM2): slight but not significant MDM2 increase
MDM2 level, combined treatment compared to doxorubicin alone (MDM2): no further increases; also recorded: did not trigger a further
IC50 (activated PBL; PBL A): 53.6 ± 2.1 µM
IC50 (activated PBL; PBL B): 57.4 ± 5.5 µM
IC50 (activated PBL; PBL C): 65.8 ± 23.2 µM
apoptotic activity (A549 cells): slightly trigger apoptosis
melting point: 141 to 142 °C
IC50 (A2780 (ovarian)): 10.3 µM
p21 level, single agent (p21): did not increase
p21 level, combined treatment compared to doxorubicin alone (p21): no further increases
IC50 (HepG2 (liver)): 18.6 µM
p53 induction, dose–response (p53): able to induce p53 only at high concentrations; also recorded: induce p53, although not at high level and only at high concentrations
p53 level, single agent (p53): did not increase
p53 level, combined treatment compared to doxorubicin alone (p53): no further increases; also recorded: did not trigger a further

melting point: 144 to 145 °C
Compound: Cc1c(C(=O)C2C(/C=C/c3ccccc3)C3CSCN3C23C(=O)Nc2ccccc23)cnn1-c1ccccc1 (centres unmarked)

Compound: Cc1c(C(=O)C2C(c3ccccn3)C3CSCN3C23C(=O)Nc2ccccc23)cnn1-c1ccccc1 (centres unmarked) [8l, 6'-(5-Methyl-1-phenyl-1H-pyrazole-4-carbonyl)-7'-(pyridin-2-yl)-3',6',7',7a'-tetrahydro-1'H-spiro[indoline-3,5'-pyrrolo[1,2-c]thiazol]-2-one]
melting point: 135 to 136 °C
IC50 [1]: ≥ 30 µM

melting point: 122 to 123 °C
Compound: Cc1c(C(=O)C2C(c3ccc(Cl)cc3)C3CSCN3C23C(=O)Nc2ccccc23)cnn1-c1ccccc1 (centres unmarked)

melting point: 134 to 135 °C
Compound: Cc1ccc(C2C3CSCN3C3(C(=O)Nc4ccccc43)C2C(=O)c2cnn(-c3ccccc3)c2C)cc1 (centres unmarked)

melting point: 142 to 143 °C
Compound: Cc1c(C(=O)C2C(c3ccc([N+](=O)[O-])cc3)C3CSCN3C23C(=O)Nc2ccccc23)cnn1-c1ccccc1 (centres unmarked)

melting point: 229 to 230 °C
Compound: Cc1c(C(=O)C2C(c3ccccc3)C3CSCN3C23C(=O)Nc2ccccc23)cnn1-c1ccccc1 (centres unmarked)

Compound: 7'-(Ferrocin-2-yl)-6'-(5-methyl-1-phenyl-1H-pyrazole-4-carbonyl)-3',6',7',7a'-tetrahydro-1'H-spiro[indoline-3,5'-pyrrolo[1,2-c]thiazol]-2-one [8d]
MDM2 level, single agent (MDM2): slight but not significant MDM2 increase
MDM2 level, combined treatment compared to doxorubicin alone (MDM2): no further increases
p21 level, single agent (p21): did not increase
p21 level, combined treatment compared to doxorubicin alone (p21): no further increases
p53 induction, dose–response (p53): able to induce p53 only at high concentrations
p53 level, single agent (p53): did not increase
p53 level, combined treatment compared to doxorubicin alone (p53): no further increases

melting point: 109 to 110 °C
Compound: COc1ccc(C2C3CSCN3C3(C(=O)Nc4ccccc43)C2C(=O)c2cnn(-c3ccccc3)c2C)cc1 (centres unmarked)

melting point: 128 to 130 °C
Compound: Cc1cccc(C2C3CSCN3C3(C(=O)Nc4ccccc43)C2C(=O)c2cnn(-c3ccccc3)c2C)c1 (centres unmarked)

Compound: Cc1c(C(=O)C2C(c3cccc(Br)c3)C3CSCN3C23C(=O)Nc2ccccc23)cnn1-c1ccccc1 (centres unmarked) [8m, 7'-(3-Bromophenyl)-6'-(5-methyl-1-phenyl-1H-pyrazole-4-carbonyl)-3',6',7',7a'-tetrahydro-1'H-spiro[indoline-3,5'-pyrrolo[1,2-c]thiazol]-2-one]
MDM2 modulation, dose–response (MDM2; A549, 24 h, 0.01, 0.1, 1, 10 µM): dose-dependent down regulation of MDM2
MDM2 level (MDM2): downmodulated MDM2; also recorded: clear down modulation; also recorded: down regulation of MDM2
IC50 (activated PBL; PBL A): 48.8 ± 4.9 µM
IC50 (activated PBL; PBL B): 36.1 ± 14.7 µM
IC50 (activated PBL; PBL C): 68.1 ± 23.8 µM
apoptotic activity (A549 cells): highly significant apoptotic activity; also recorded: considerable high level of apoptosis
melting point: 132 to 133 °C
IC50 (A549 (lung)): 17.7 µM
p53 level (p53): did not induce any changes; also recorded: did not induce p53

Compound: Cc1c(C(=O)C2C(c3ccco3)C3CSCN3C23C(=O)Nc2ccccc23)cnn1-c1ccccc1 (centres unmarked) [8b, 7'-(Furan-2-yl)-6'-(5-methyl-1-phenyl-1H-pyrazole-4-carbonyl)-3',6',7',7a'-tetrahydro-1'H-spiro[indoline-3,5'-pyrrolo[1,2-c]thiazol]-2-one]
MDM2 level (MDM2): an increase
apoptotic activity (A549 cells): significantly trigger apoptosis
apoptotic activity (A549 cells; listed as 8t): highly significant apoptotic activity
melting point: 227 to 228 °C
IC50 [1]: ≥ 30 µM
p21 level (p21; A549, drug concentration equivalent to IC75 (30 µM), fold over mock): an increase
p53 level (p53): significantly increased; also recorded: able to activate p53
